We go through 32 compounds from US11261174B2, “Pyrazole O-linked carbamoyl cyclohexyl acids as LPA antagonists” (BRISTOL-MYERS SQUIBB COMPANY, priority 2017, dated 2022).

pIC50: −log10 of the molar value.

T1 sequence (Q92633 whole entry): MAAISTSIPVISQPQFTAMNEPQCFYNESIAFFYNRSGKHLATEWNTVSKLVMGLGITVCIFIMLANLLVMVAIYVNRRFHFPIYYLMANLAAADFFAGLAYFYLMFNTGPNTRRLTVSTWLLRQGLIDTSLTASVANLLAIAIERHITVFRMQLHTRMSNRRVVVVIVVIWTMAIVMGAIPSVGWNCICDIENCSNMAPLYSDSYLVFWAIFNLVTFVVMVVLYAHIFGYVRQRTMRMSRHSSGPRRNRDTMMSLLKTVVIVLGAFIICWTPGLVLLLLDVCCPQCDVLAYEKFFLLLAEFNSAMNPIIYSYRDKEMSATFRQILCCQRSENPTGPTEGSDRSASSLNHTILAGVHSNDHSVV

In the first experiment the target is T1, LPA1 (Homo sapiens, UniProt Q92633). The experiment can be described thus: LPA1 functional antagonist assay (LPA-induced calcium flux). The experiment is classed as cell-based. The arrangement: expressed in transfected cells; host or cells: Chinese hamster ovary (CHO) cells. To be noted: CHO cells overexpressing human LPA1; calcium flux induced by 10 nM LPA; read-out: hLPA1 IC50. The procedure:
The effectiveness of compounds of the present invention as LPA1 inhibitors can be determined in an LPA1 functional antagonist assay as follows:
Chinese hamster ovary cells overexpressing human LPA1 were plated overnight (15,000 cells/well) in poly-D-lysine coated 384-well microplates (Greiner bio-one, Cat #781946) in DMEM/F12 medium (Gibco, Cat #11039). Following overnight culture, cells were loaded with calcium indicator dye (AAT Bioquest Inc, Cat #34601) for 30 minutes at 37° C. The cells were then equilibrated to room temperature for 30 minutes before the assay. Test compounds solubilized in DMSO were transferred to 384 well non-binding surface plates (Corning, Cat #3575) using the Labcyte Echo acoustic dispense and diluted with assay buffer [1×HBSS with calcium/magnesium (Gibco Cat #14025-092), 20 mM HEPES (Gibco Cat #15630-080) and 0.1% fatty acid free BSA (Sigma Cat # A9205)] to a final concentration of 0.5% DMSO. Diluted compounds were added to the cells by FDSS6000 (Hamamatsu) at final concentrations ranging from 0.08 nM to 5 μM. and were then incubated for 20 min at room temperature at which time LPA (Avanti Polar Lipids Cat #857130C) was added at final concentrations of 10 nM to stimulate the cells. […] IC50 values were determined by fitting data to a 4-parameter logistic equation (GraphPad Prism, San Diego Calif.).
For orientation: A change in cytosolic calcium serves as a functional read-out for many receptors and channels.
Take `Cc1nc(-c2cnn(C)c2COC(=O)N(C)C2(C3CC3)CC2)ccc1O[C@H]1CCC[C@H](C(=O)O)C1` [Example 17]: the negative logarithm of the IC50 (pIC50) (in general, −log10 of the IC50, conventionally taken in molar units) is 7.37. As for `Cc1nc(-c2cnn(C)c2COC(=O)N(C)C2CCC2)ncc1O[C@H]1CCC[C@H](C(=O)O)C1` [Example 70], the pIC50 was 6.92. For the compound `CCc1nc(-c2cnn(C)c2COC(=O)N(C)Cc2ccccc2)ncc1O[C@H]1CCC[C@H](C(=O)O)C1` [Example 82], the negative logarithm of the IC50 (pIC50) was 7.10. As to `Cc1nc(-c2cnn(C)c2COC(=O)N(C)CC2CCC2)ncc1O[C@H]1CCC[C@H](C(=O)O)C1` [Example 80], the pIC50 is 7.15.

As for `CCCC(C)(C)N(C)C(=O)OCc1c(-c2ccc(O[C@@H]3CCC[C@@H](C(=O)O)C3)c(C)n2)cnn1C` (racemic) [Example 28], the pIC50 was 6.85. On to `Cc1nc(-c2cnn(C)c2COC(=O)N(C)C2CCCC2)ncc1O[C@H]1CCC[C@H](C(=O)O)C1` [Example 71], for which the pIC50 was 6.94. In the case of `CN(C(=O)OCc1c(-c2ccc(O[C@H]3CCC[C@H](C(=O)O)C3)cn2)cnn1C)C1CCCC1` [Example 62], the pIC50 was 7.51. Consider `C[C@H](C1CC1)N(C)C(=O)OCc1c(-c2ccc(O[C@H]3CCC[C@H](C(=O)O)C3)cc2)cnn1C` [Example 58], for which the negative-log IC50 (pIC50) is 7.42. On to `CC(C1CC1)N(C)C(=O)OCc1c(-c2ccc(O[C@H]3CCC[C@H](C(=O)O)C3)cn2)cnn1C` (stereo partly drawn) [Example 61], for which the negative-log IC50 (pIC50) is 6.87. `Cc1nc(-c2cnn(C)c2COC(=O)N(C)CCCCCF)ncc1O[C@H]1CCC[C@H](C(=O)O)C1` [Example 73]: the pIC50 was 6.85. With `CCCCN(C)C(=O)OCc1c(-c2ccc(O[C@H]3CCC[C@H](C(=O)O)C3)cc2)cnn1C` [Example 64], the negative-log IC50 (pIC50) was 7.64. Take `Cc1cc(-c2cnn(C)c2COC(=O)N(C)C2CCC2)ccc1O[C@H]1CCC[C@H](C(=O)O)C1` [Example 45]: the negative-log IC50 (pIC50) is 7.72. With `CN(C(=O)OCc1c(-c2cnc(O[C@H]3CCC[C@H](C(=O)O)C3)cn2)cnn1C)C1CCCC1` [Example 56], the negative-log IC50 (pIC50) was 7.74. `Cc1nc(-c2cnn(C)c2COC(=O)N(C)CCC(C)C)ccc1O[C@H]1CCC[C@H](C(=O)O)C1` [Example 24]: the pIC50 is 8.30. In the case of `CN(CC1CCC1)C(=O)OCc1c(-c2ccc(O[C@H]3CCC[C@H](C(=O)O)C3)cn2)cnn1C` [Example 3], the pIC50 is 7.32. With `CN(CCC1CC1)C(=O)OCc1c(-c2ccc(O[C@H]3CCC[C@H](C(=O)O)C3)cc2)cnn1C` [Example 63], the negative-log IC50 (pIC50) is 7.34. With `Cc1nc(-c2cnn(C)c2COC(=O)N(C)CC2CCC2)ccc1O[C@H]1CCC[C@H](C(=O)O)C1` [Example 21], the negative logarithm of the IC50 (pIC50) was 8.00. Same read-out and setting: to `CC(C)CCN(C)C(=O)OCc1c(-c2ccc(O[C@@H]3CCC[C@@H](C(=O)O)C3)cn2)cnn1C` (racemic) [Example 34] belongs 7.48; to `Cc1cc(-c2cnn(C)c2COC(=O)N(C)C2CCCC2)ccc1O[C@H]1CCC[C@H](C(=O)O)C1` [Example 48], 8.10. Turning to `CCCCN(C)C(=O)OCc1c(-c2ccc(O[C@H]3CCC[C@H](C(=O)O)C3)c(C)c2)cnn1C` [Example 60], the negative-log IC50 (pIC50) is 7.96. In the case of `CCCCN(C)C(=O)OCc1c(-c2cnc(O[C@H]3CCC[C@H](C(=O)O)C3)c(C)n2)cnn1C` (racemic) [Example 7], the pIC50 was 7.40. The same measure, in the same setting: under `CN(CC1CCC1)C(=O)OCc1c(-c2ccc(O[C@H]3CCC[C@H](C(=O)O)C3)cc2)cnn1C` [Example 52] stands 7.28; under `Cc1nc(-c2cnn(C)c2COC(=O)N(C)CC2CC2)ncc1O[C@H]1CCC[C@H](C(=O)O)C1` [Example 69], 6.53. `CCc1nc(-c2cnn(C)c2COC(=O)N(C)CC2CC2)ncc1O[C@H]1CCC[C@H](C(=O)O)C1` [Example 85]: the negative-log IC50 (pIC50) is 6.79.

Consider `Cc1nc(-c2cnn(C)c2COC(=O)N(C)C[C@@H]2C[C@H]2C)ncc1O[C@H]1CCC[C@H](C(=O)O)C1` [Example 91], for which the pIC50 was 7.49. As for `Cc1nc(-c2cnn(C)c2COC(=O)N(C)CC(C)C)ncc1O[C@H]1CCC[C@H](C(=O)O)C1` [Example 68], the negative logarithm of the IC50 (pIC50) is 6.67. `Cc1nc(-c2cnn(C)c2COC(=O)N(C)CC23CC(C2)C3)ncc1O[C@H]1CCC[C@H](C(=O)O)C1` [Example 77]: the negative logarithm of the IC50 (pIC50) is 6.90. As for `Cc1nc(-c2cnn(C)c2COC(=O)N(C)Cc2cccc(F)c2)ccc1O[C@H]1CCC[C@H](C(=O)O)C1` [Example 16], the pIC50 was 8.10. Regarding `CCC(CC)N(C)C(=O)OCc1c(-c2ccc(O[C@H]3CCC[C@H](C(=O)O)C3)cn2)cnn1C` [Example 26], the pIC50 was 7.52. In the case of `Cc1nc(-c2cnn(C)c2COC(=O)N(C)Cc2ccccc2)cnc1O[C@H]1CCC[C@H](C(=O)O)C1` [Example 8], the negative logarithm of the IC50 (pIC50) is 7.47.

A further experiment deals with T1, LPA1.
Assay: not given
To be noted: IPF patients, 26-week clinical trial; cited from earlier work.
Take `Cc1noc(-c2ccc(-c3ccc(C4(C(=O)O)CC4)cc3)cc2)c1NC(=O)O[C@H](C)c1ccccc1` [BMS-986020]: the “rate of FVC (forced vital capacity) decline” value is “significantly reduce”.

The next experiment has as its system UUO mice.
Assay: not given
The settings on record: cited from earlier work.
As to `Cc1noc(-c2ccc(CSCCC(=O)O)cc2)c1NC(=O)OC(C)c1ccccc1Cl` (stereo not drawn) [Ki16425], the “development of renal fibrosis” value was “closely resembled the profile of LPA1 (−/−) mice”.

The subject of another experiment is mouse epithelial renal cell line, MCT.
Assay: not given
The settings on record: LPA treatment of MCT cells, co-treatment; cited from earlier work.
Turning to `Cc1noc(-c2ccc(CSCCC(=O)O)cc2)c1NC(=O)OC(C)c1ccccc1Cl` (stereo not drawn) [Ki16425], the “induction of CTGF expression” value was “almost completely suppressed”.

The test system of the next experiment is human foetal lung fibroblasts.
Assay: not given
The settings on record: induced by BAL obtained from IPF patients; cited from earlier work.
For `Cc1noc(-c2ccc(CSCCC(=O)O)cc2)c1NC(=O)OC(C)c1ccccc1Cl` (stereo not drawn) [Ki16425], the “chemotaxis of human foetal lung fibroblasts” value was “blocked”.

In a further experiment the test system is pancreatic cancer cell lines.
Assay: not given
The settings on record: LPA-induced and ascites-induced; highly peritoneal metastatic pancreatic cancer cell line; cited from earlier work.
Consider `Cc1noc(-c2ccc(CSCCC(=O)O)cc2)c1NC(=O)OC(C)c1ccccc1Cl` (stereo not drawn) [Ki16425], for which the invasion activity entry is on record as “blocked”.

The same experiment, now with this note: in response to LPA and peritoneal fluid (ascites) from pancreatic cancer patients; cited from earlier work.
In the case of `Cc1noc(-c2ccc(CSCCC(=O)O)cc2)c1NC(=O)OC(C)c1ccccc1Cl` (stereo not drawn) [Ki16425], the in vitro migration result is reported as “effectively blocked”.
